The NIST ThermoML archive (doi:10.1016/j.fluid.2007.09.028)
± gives the expanded uncertainty stated by the source.

Tests used:
[1] = xn = mol fraction of the nth substance listed; details: 101 kPa, Liquid, x1 = 1
[2] = 101 kPa, Liquid

Which results are given for `CCC(C)O` (stereo unspecified) [butan-2-ol] + Clc1ccccc1?
mass density ([1]; 288.15 K): 810.689 ± 0.55 kg/m3; mass density ([1]; 293.15 K): 806.646 ± 0.56 kg/m3; mass density ([1]; 298.15 K): 802.528 ± 0.56 kg/m3; mass density ([1]; 303.15 K): 798.326 ± 0.56 kg/m3; mass density ([1]; 308.15 K): 794.03 ± 0.57 kg/m3; mass density ([1]; 313.15 K): 789.632 ± 0.58 kg/m3

What does the source list for `CCCCO` [butan-1-ol] + Clc1ccccc1?
mass density ([1]; 288.15 K): 813.373 ± 0.45 kg/m3; mass density ([1]; 293.15 K): 809.573 ± 0.45 kg/m3; mass density ([1]; 298.15 K): 805.762 ± 0.46 kg/m3; mass density ([1]; 303.15 K): 801.923 ± 0.47 kg/m3; mass density ([1]; 308.15 K): 798.053 ± 0.47 kg/m3; mass density ([1]; 313.15 K): 794.147 ± 0.48 kg/m3

For `Clc1ccccc1` [chlorobenzene], which mass density ([2]; 288.15 K) is on record?
Its mass density is 1111.81 ± 0.3 kg/m3.

What about the mass density ([2]; 293.15 K) of the same molecule?
The mass density was 1106.43 ± 0.29 kg/m3.

What about the mass density ([2]; 298.15 K) of the same molecule?
Its mass density is 1101.04 ± 0.28 kg/m3.

And the mass density ([2]; 303.15 K)?
Its mass density is 1095.64 ± 0.28 kg/m3.

What about the mass density ([2]; 308.15 K) of the same molecule?
The mass density was 1090.23 ± 0.27 kg/m3.

What about the mass density ([2]; 313.15 K) of the same molecule?
Its mass density is 1084.82 ± 0.26 kg/m3.

What about the mass density ([2]; 318.15 K) of the same molecule?
Its mass density is 1079.42 ± 0.25 kg/m3.

And the mass density ([2]; 323.15 K)?
Its mass density is 1073.97 ± 0.24 kg/m3.

Which mass density ([2]; 303.15 K) does the source give for `CC(C)(C)O` [2-methylpropan-2-ol] here?
The mass density was 775.412 ± 0.49 kg/m3.

And the mass density ([2]; 308.15 K)?
The mass density was 770.193 ± 0.49 kg/m3.

What about the mass density ([2]; 313.15 K) of the same molecule?
The mass density was 764.884 ± 0.5 kg/m3.

What about the mass density ([2]; 318.15 K) of the same molecule?
Its mass density is 759.488 ± 0.51 kg/m3.

And the mass density ([2]; 323.15 K)?
The mass density was 754.015 ± 0.52 kg/m3.

What does the source list for `CCC(C)O` (stereo unspecified) [butan-2-ol]?
mass density ([2]; 288.15 K): 810.689 ± 0.55 kg/m3; mass density ([2]; 293.15 K): 806.646 ± 0.56 kg/m3; mass density ([2]; 298.15 K): 802.528 ± 0.56 kg/m3; mass density ([2]; 303.15 K): 798.326 ± 0.56 kg/m3; mass density ([2]; 308.15 K): 794.03 ± 0.57 kg/m3; mass density ([2]; 313.15 K): 789.632 ± 0.58 kg/m3

With `CCCCCO` [pentan-1-ol] + Clc1ccccc1 as the molecule, how does the mass density ([1]; 288.15 K) read?
Its mass density is 818.282 ± 0.54 kg/m3.

And the mass density ([1]; 293.15 K)?
The mass density was 814.635 ± 0.55 kg/m3.

And the mass density ([1]; 298.15 K)?
The mass density was 810.968 ± 0.55 kg/m3.

And the mass density ([1]; 303.15 K)?
Its mass density is 807.278 ± 0.55 kg/m3.

What about the mass density ([1]; 308.15 K) of the same molecule?
The mass density was 803.558 ± 0.56 kg/m3.

What about the mass density ([1]; 313.15 K) of the same molecule?
The mass density was 799.817 ± 0.56 kg/m3.

With `CCCO` [propan-1-ol] + Clc1ccccc1 as the molecule, how does the mass density ([1]; 288.15 K) read?
The mass density was 807.69 ± 0.46 kg/m3.

What about the mass density ([1]; 293.15 K) of the same molecule?
The mass density was 803.703 ± 0.46 kg/m3.

And the mass density ([1]; 298.15 K)?
Its mass density is 799.692 ± 0.47 kg/m3.

And the mass density ([1]; 303.15 K)?
The mass density was 795.65 ± 0.47 kg/m3.

And the mass density ([1]; 308.15 K)?
Its mass density is 791.576 ± 0.48 kg/m3.

What about the mass density ([1]; 313.15 K) of the same molecule?
The mass density was 787.466 ± 0.49 kg/m3.

For `CCCCCO` [pentan-1-ol], which mass density ([2]; 288.15 K) is on record?
The mass density was 818.282 ± 0.54 kg/m3.

And the mass density ([2]; 293.15 K)?
Its mass density is 814.635 ± 0.55 kg/m3.

What about the mass density ([2]; 298.15 K) of the same molecule?
Its mass density is 810.968 ± 0.55 kg/m3.

And the mass density ([2]; 303.15 K)?
Its mass density is 807.278 ± 0.55 kg/m3.

What about the mass density ([2]; 308.15 K) of the same molecule?
Its mass density is 803.558 ± 0.56 kg/m3.

What about the mass density ([2]; 313.15 K) of the same molecule?
The mass density was 799.817 ± 0.56 kg/m3.

With `CC(C)(C)O` [2-methylpropan-2-ol] + Clc1ccccc1 as the molecule, how does the mass density ([1]; 303.15 K) read?
Its mass density is 775.412 ± 0.49 kg/m3.

And the mass density ([1]; 308.15 K)?
The mass density was 770.193 ± 0.49 kg/m3.

What about the mass density ([1]; 313.15 K) of the same molecule?
The mass density was 764.884 ± 0.5 kg/m3.

What about the mass density ([1]; 318.15 K) of the same molecule?
Its mass density is 759.488 ± 0.51 kg/m3.

What about the mass density ([1]; 323.15 K) of the same molecule?
The mass density was 754.015 ± 0.52 kg/m3.

With `CCCCO` [butan-1-ol] as the molecule, how does the mass density ([2]; 288.15 K) read?
Its mass density is 813.373 ± 0.45 kg/m3.

And the mass density ([2]; 293.15 K)?
The mass density was 809.573 ± 0.45 kg/m3.

What about the mass density ([2]; 298.15 K) of the same molecule?
Its mass density is 805.762 ± 0.46 kg/m3.

And the mass density ([2]; 303.15 K)?
Its mass density is 801.923 ± 0.47 kg/m3.

And the mass density ([2]; 308.15 K)?
Its mass density is 798.053 ± 0.47 kg/m3.

What about the mass density ([2]; 313.15 K) of the same molecule?
Its mass density is 794.147 ± 0.48 kg/m3.

What does the source list for `CCCO` [propan-1-ol]?
mass density ([2]; 288.15 K): 807.69 ± 0.46 kg/m3; mass density ([2]; 293.15 K): 803.703 ± 0.46 kg/m3; mass density ([2]; 298.15 K): 799.692 ± 0.47 kg/m3; mass density ([2]; 303.15 K): 795.65 ± 0.47 kg/m3; mass density ([2]; 308.15 K): 791.576 ± 0.48 kg/m3; mass density ([2]; 313.15 K): 787.466 ± 0.49 kg/m3
